{
  "source": "paper PMC6429159",
  "about": "“Evolution and Biological Evaluation of Matrinic Derivatives with Amantadine Fragments As New Anti-Influenza Virus Agents” (Molecules, 2019)",
  "origin": "cited, not measured here",
  "system": "influenza virus A/hanfang/359/95 (H3N2)",
  "set-up": "method as in PMID 29473520",
  "settings": "lead 1, value of previous study; read-out: Anti-H3N2 IC50; cited from earlier work",
  "data": [
    {"compound": "CCCCC1C2CCCN3CCCC(CN1Cc1ccc(C(=O)O)cc1)C23", "note": "(stereo not shown) [Compound 1, 12N-p-carboxybenzyl matrinic butane]", "values": [
      {"measurement": "IC50", "value": 16.2, "unit": "µM"}
    ]}
  ]
}
